Measurements: PMC6750895 (Journal of Medicinal Chemistry, 2019)
Entries after “also recorded” stand apart in the source; their conditions may differ.

How the values were obtained:
[1] = tested on: IKZF3; test: Compound-mediated IKZF3 degradation in OPM-2 cells (western blot); format: cell-based, human; conditions: 24 h
[2] = biological target: T1, MsCI4 (Magnetospirillum gryphiswaldense, UniProt A4TVL0); test: FRET-based binding assay with WT MsCI4; conditions: for binding in the FRET assay (in words): WT MsCI4
T1 construct: made in house
T1 sequence (A4TVL0 1-124): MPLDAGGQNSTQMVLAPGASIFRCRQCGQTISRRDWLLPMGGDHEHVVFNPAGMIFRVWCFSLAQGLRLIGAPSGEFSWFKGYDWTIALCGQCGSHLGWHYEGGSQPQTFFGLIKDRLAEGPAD

[3] = design: method as in earlier work; conditions: urine; cited from earlier work
[4] = Solubility in water or bicarbonate buffer; format: physicochemical
[5] = spontaneous hydrolysis, physiological pH of 7.4; cited from earlier work

Structure (SMILES) | effect on IKZF3 levels / IKZF3 recruitment (in words) [1] | binding in the FRET assay (in words) [2] | also measured
O=C1CC(NC(=O)OCc2ccccc2)C(=O)N1 (stereo not shown) [7d, Benzyl (2,5-Dioxopyrrolidin-3-yl)carbamate] | significant effects | – | reduction of IKZF3 levels ([1]; 100 μM): about 20%
Nc1cccc2c1C(=O)N(C1CC(=O)NC1=O)C2=O (stereo not shown) [5a, 4-Amino-2-(2,5-dioxopyrrolidin-3-yl)isoindoline-1,3-dione] | significant effects | binding was observed but could not be quantified | –
O=C1CCC(NC(=O)c2ccccc2C(=O)O)C(=O)N1 (stereo not drawn) [CBG, α-(2-carboxybenzamido)glutarimide, reference compound] | – | – | share among urinary metabolites of thalidomide [3]: ~30%
N[C@H]1CC[C@@H](COC(=O)NC2CCC(=O)NC2=O)CC1 (stereo partly shown) [16b] | – | – | Ki [2]: 5 ± 0.5 µM; solubility in water (in words) [4]: water-soluble
NCc1ccc(COC(=O)NC2CC(=O)NC2=O)cc1.O=C(O)C(F)(F)F (stereo not shown) [11a, (4-((((2,5-Dioxopyrrolidin-3-yl)carbamoyl)oxy)methyl)phenyl)methanaminium 2,2,2-Trifluoroacetate] | abolished IKZF3 recruitment | – | solubility in water (in words) [4]: water-soluble
NCc1ccc(COC(=O)NC2CCC(=O)NC2=O)cc1.O=C(O)C(F)(F)F (stereo not shown) [11b, (4-((((2,6-Dioxopiperidin-3-yl)carbamoyl)oxy)methyl)phenyl)methanaminium 2,2,2-Trifluoroacetate] | – | – | Ki [2]: 10 ± 0.8 µM; solubility in water (in words) [4]: water-soluble
NC(=O)CCC(C(=O)O)N1C(=O)c2ccccc2C1=O (stereo not shown) [2-phthalimidoglutaramic acid] | – | – | share among urinary metabolites of thalidomide [3]: ~50%
O=C1CC(NC(=O)c2sc3ccccc3c2Cl)C(=O)N1 (stereo not shown) [7g, 3-Chloro-N-(2,5-dioxopyrrolidin-3-yl)benzo[b]thiophene-2-carboxamide] | – | binding was observed but could not be quantified | –
O=C1CCC(N2C(=O)c3ccc([N+](=O)[O-])cc3C2=O)C(=O)N1 (stereo not shown) [4d, 2-(2,6-Dioxopiperidin-3-yl)-5-nitroisoindoline-1,3-dione] | abolish IKZF3 recruitment | – | –
O=C1CC(N2C(=O)c3ccc([N+](=O)[O-])cc3C2=O)C(=O)N1 (stereo not shown) [4b, 2-(2,5-Dioxopyrrolidin-3-yl)-5-nitroisoindoline-1,3-dione] | abolish IKZF3 recruitment | – | –
N[C@H]1CC[C@@H](COC(=O)NC2CC(=O)NC2=O)CC1 (stereo partly shown) [16a] | – | – | Ki [2]: 20 ± 2 µM; solubility in water (in words) [4]: water-soluble
O=C1CC(N2C(=O)c3cccc([N+](=O)[O-])c3C2=O)C(=O)N1 (stereo not shown) [4a, 2-(2,5-Dioxopyrrolidin-3-yl)-4-nitroisoindoline-1,3-dione] | abolish IKZF3 recruitment | binding was observed but could not be quantified | –
CC(C)=CC(=O)NC1CC(=O)NC1=O (stereo not shown) [7a, N-(2,5-Dioxopyrrolidin-3-yl)-3-methylbut-2-enamide] | – | binding was observed but could not be quantified | –
O=C1CCC(N2C(=O)c3cccc([N+](=O)[O-])c3C2=O)C(=O)N1 (stereo not shown) [4c, 2-(2,6-Dioxopiperidin-3-yl)-4-nitroisoindoline-1,3-dione] | abolish IKZF3 recruitment | binding was observed but could not be quantified | –
O=C(O)CCC(=O)NCc1ccc(COC(=O)NC2CC(=O)NC2=O)cc1 (stereo not shown) [12a, 4-((4-((((2,5-Dioxopyrrolidin-3-yl)carbamoyl)oxy)methyl)benzyl)amino)-4-oxobutanoic Acid] | abolished IKZF3 recruitment | – | –
O=C1CC(NC(=O)Cc2ccccc2)C(=O)N1 (stereo not shown) [7b, N-(2,5-Dioxopyrrolidin-3-yl)-2-phenylacetamide] | abolished IKZF3 recruitment | binding was observed but could not be quantified | –
O=C(/C=C/c1ccccc1)NC1CC(=O)NC1=O (stereo not shown) [7f, N-(2,5-Dioxopyrrolidin-3-yl)cinnamamide] | significant effects | – | –
O=C1CC(NC(=O)c2cc([N+](=O)[O-])cc([N+](=O)[O-])c2)C(=O)N1 (stereo not shown) [7e, N-(2,5-Dioxopyrrolidin-3-yl)-3,5-dinitrobenzamide] | – | binding was observed but could not be quantified; also recorded: affinity was decreased under the detectable levels of the FRET assay | –
O=C1CCC(N2C(=O)c3ccccc3C2=O)C(=O)N1 (stereo not shown) [thalidomide] | – | – | half-life [5]: 5.5 to 7.3 h
